The target of test [1] is UDP-N-acetylglucosamine 1-carboxyvinyltransferase (Escherichia coli K-12) (UniProt P0A749). The test is described as follows: Inhibition of recombinant Escherichia coli MurA assessed as residual activity at 1 mM using UDP-N-acetylglucosamine as substrate incubated for 15 mins and measured by malachite green based colorimetric assay relative to control.
Test [2] has as its system Escherichia coli. As to the kind of experiment: Antibacterial activity against Escherichia coli D22 incubated for 20 hrs and measured by broth microdilution method. The test is classed as functional.
The next test relates to Staphylococcus aureus. The test is described as follows: Antibacterial activity against Staphylococcus aureus ATCC 29213 incubated for 20 hrs and measured by broth microdilution method. In kind it is functional. In general terms: In broth dilution the organism is exposed to a series of concentrations in liquid medium.
Test [3] deals with UDP-N-acetylglucosamine 1-carboxyvinyltransferase (Escherichia coli K-12, UniProt P0A749). As to the kind of experiment: Inhibition of recombinant Escherichia coli MurA using UDP-N-acetylglucosamine as substrate incubated for 15 mins and measured by malachite green based colorimetric assay.
UDP-N-acetylglucosamine 1-carboxyvinyltransferase, sequence (P0A749 whole entry): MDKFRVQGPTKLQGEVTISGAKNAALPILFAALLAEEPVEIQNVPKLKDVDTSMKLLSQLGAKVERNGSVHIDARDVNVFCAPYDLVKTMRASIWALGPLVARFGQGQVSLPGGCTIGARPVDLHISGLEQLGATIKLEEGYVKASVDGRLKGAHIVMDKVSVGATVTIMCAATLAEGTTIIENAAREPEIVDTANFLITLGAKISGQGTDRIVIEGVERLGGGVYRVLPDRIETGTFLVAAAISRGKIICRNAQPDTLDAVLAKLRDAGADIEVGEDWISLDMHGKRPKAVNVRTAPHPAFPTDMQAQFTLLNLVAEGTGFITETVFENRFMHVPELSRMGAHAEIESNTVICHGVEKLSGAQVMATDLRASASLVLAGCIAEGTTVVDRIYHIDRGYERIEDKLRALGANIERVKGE
Test [4] concerns Escherichia coli. As to the kind of experiment: Antibacterial activity against Escherichia coli N43 incubated for 20 hrs and measured by broth microdilution method. The test is classed as functional.
In test [5] the test system is Escherichia coli. The test is described as follows: Antibacterial activity against Escherichia coli ATCC 25922 incubated for 20 hrs and measured by broth microdilution method. In kind it is functional.
The target in test [6] is UDP-N-acetylglucosamine 1-carboxyvinyltransferase (Escherichia coli K-12) (UniProt P0A749). The test is described as follows: Inhibition of recombinant Escherichia coli MurA assessed as residual activity at 0.5 mM using UDP-N-acetylglucosamine as substrate incubated for 15 mins and measured by malachite green based colorimetric assay relative to control.
The target is the same in test [7]. As to the kind of experiment: Inhibition of recombinant Escherichia coli MurA assessed as residual activity at 0.1 mM using UDP-N-acetylglucosamine as substrate incubated for 15 mins and measured by malachite green based colorimetric assay relative to control.
Test [8] addresses D-alanine--D-alanine ligase B (Escherichia coli K-12) (UniProt P07862). As to the kind of experiment: Inhibition of recombinant Escherichia coli DdlB assessed as residual activity at 100 uM using D-alanine as substrate incubated for 20 mins and measured by malachite green based colorimetric assay relative to control.
The target is the same in test [9]. As to the kind of experiment: Inhibition of recombinant Escherichia coli DdlB assessed as residual activity at 1 mM using D-alanine as substrate incubated for 20 mins and measured by malachite green based colorimetric assay relative to control.
The target is the same in test [10]. As to the kind of experiment: Inhibition of recombinant Escherichia coli DdlB assessed as residual activity at 20 uM using D-alanine as substrate incubated for 20 mins and measured by malachite green based colorimetric assay relative to control.
Test [11] shares this target. As to the kind of experiment: Inhibition of recombinant Escherichia coli DdlB assessed as residual activity at 500 uM using D-alanine as substrate incubated for 20 mins and measured by malachite green based colorimetric assay relative to control.
The target in test [12] is D-alanine--D-alanine ligase B (Escherichia coli K-12, UniProt P07862). As to the kind of experiment: Inhibition of recombinant Escherichia coli DdlB using D-alanine as substrate incubated for 20 mins and measured by malachite green based colorimetric assay.

pIC50: −log10 of the molar value. Where only a bound is given, the exact number is not on record here.

As a reminder, the MIC is the smallest concentration in the dilution series that meets the test's criterion for growth inhibition. A lower MIC goes with inhibition by little substance. One may read the pIC50 as the negative decadic logarithm of the IC50, by convention in mol/L.

UDP-N-acetylglucosamine 1-carboxyvinyltransferase (Escherichia coli K-12), sequence (P0A749 whole entry): as above

As for `O=C(O)c1cc(-c2ccccc2)nc2c(Cl)cccc12`, the Activity in test [1] came to 95.2%.

As to `O=C(O)c1cc(-c2cccc(O)c2)nc2ccccc12`, in [1], the Activity is 72.9%.

On to `O=C(O)c1cc(-c2ccc(-c3ccccc3)cc2)nc2ccccc12`, for which the MIC was 128 µg/mL in the test on Escherichia coli [2], 128 µg/mL with Staphylococcus aureus, more than 128 µg/mL in the test with Escherichia coli [4] and more than 128 µg/mL against Escherichia coli [5]. In [3], the negative-log IC50 (pIC50) is 3.76.

With `O=C(O)c1cc(-c2ccco2)nc2ccccc12`, the Activity in test [1] worked out at 68%.

On to `O=C(O)c1cc(-c2ccc3c(c2)OCCO3)nc2ccccc12`, for which, in test [1], the Activity is 77.3%.

For `CNC(=O)[C@@H](Cc1c[nH]c2ccccc12)NCc1ccc(-n2ccnc2)c(-c2ccc(-c3cc(C(=O)O)c4ccccc4n3)cc2)c1`, the pIC50 in test [3] was 4.81.

Turning to `CC(=O)Nc1ccc(-c2cc(C(=O)O)c3ccccc3n2)cc1`, the Activity in [6] was 82.6%.

Turning to `O=C(O)c1cc(-c2ccc(C3CCCCC3)cc2)nc2ccccc12`, the Activity in test [7] was determined as 98.3%.

Take `CNC(=O)C[C@H](C)NC(=O)c1nsc2ccc(-c3cc(F)cc(F)c3)cc12`: the Activity in test [8] amounted to 87%.

Regarding `COc1ccc(-c2cc[nH]n2)cc1`, the Activity in test [9] stood at 92.9%.

Regarding `O=C(O)c1cc(-c2ccc(/C=C/c3ccccc3)cc2)nc2ccccc12`, the MIC with Escherichia coli [2] is 32 µg/mL; in the test on Staphylococcus aureus, 64 µg/mL; against Escherichia coli [4] it was more than 128 µg/mL; against Escherichia coli [5], more than 128 µg/mL. Also, the pIC50 in test [3] is 4.11.

For `COc1ccc(-c2[nH]ncc2CN)cc1`, the Activity in [9] was found to be 58.6%.

On to `O=C(O)c1cc(-c2ccccc2)nc2ccc(Cl)cc12`, for which, in [1], the Activity is 86.3%.

Regarding `O=C(O)c1cc(-c2ccccc2O)nc2ccccc12`, in [1], the Activity turned out to be 77.5%.

Take `CNC(=O)[C@@H]1[C@@H](C)OC(C)(C)N1C(=O)[C@@H](NC(=O)c1nsc2ccc(-c3cc(F)cc(F)c3)cc12)C(C)C`: the Activity in [10] was determined as 103%.

For `COC(=O)c1cc(-c2ccccc2)nc2ccccc12`, in test [1], the Activity worked out at 92.6%.

As to `O=C(O)c1c(-c2ccccc2)c(-c2ccccc2)nc2ccccc12`, the Activity in [1] is 85.2%.

Turning to `O=C(O)c1cc(-c2ccccc2)nc2cc(Cl)ccc12`, in [1], the Activity turned out to be 101%.

`CCN(CC)C(=O)c1ccc(-c2cc3nc[nH]c3nc2C(=O)N[C@@H](Cc2ccccc2F)C(=O)NC)cc1`: in test [11], the Activity worked out at 81%.

For `CC[C@H](C)[C@@H](CCC(=O)NC)NC(=O)[C@H](Cc1c[nH]c2ccc(F)cc12)NC(=O)[C@H](CCC(C)C)NCc1cnn(C)c1-c1ccc(OC)cc1`, the minimum inhibitory concentration (MIC) against Escherichia coli [2], against Staphylococcus aureus, in the test with Escherichia coli [4] and with Escherichia coli [5] was more than 250 µM throughout. Besides, the pIC50 in test [12] was 3.61.

Take `Cc1c[nH]c2ccc(F)cc12`: the Activity in [9] was determined as 108%.

For `CNC(=O)[C@H]1CCCC[C@H]1NC(=O)c1nsc2ccc(-c3cc(F)cc(F)c3)cc12`, the Activity in [10] amounted to 106%.

With `O=C(O)c1cc(-c2cccc(Cl)c2)nc2ccccc12`, the Activity in test [1] came out at 82.4%.

As to `O=C(O)c1cc(-c2ccc(-c3ccc([N+](=O)[O-])cc3)cc2)nc2ccc(Br)cc12`, in test [7], the Activity amounted to 100%.

For `CNC(=O)[C@@H](Cc1cn(C(=O)OC(C)(C)C)c2ccccc12)NCc1ccc(-n2ccnc2)c(-c2ccc(-c3cc(C(=O)O)c4ccccc4n3)cc2)c1`, the minimum inhibitory concentration (MIC) in the test with Escherichia coli [2], in the test on Staphylococcus aureus, against Escherichia coli [4] and in the test on Escherichia coli [5] was more than 128 µg/mL in each case. The negative-log IC50 (pIC50) in test [3] is 4.85.

Take `O=C(O)CCc1c[nH]c2ccc(F)cc12`: the Activity in test [9] turned out to be 94.2%.

As for `CNC(=O)C(N)Cc1c[nH]c2ccccc12` (configuration not stated), in test [1], the Activity was 95.3%.

Regarding `O=C(O)c1cc(-c2ccc(O)cc2)nc2ccccc12`, the Activity in test [1] worked out at 66.6%.

As to `O=C(O)c1cc(-c2ccc(Cl)cc2)nc2ccccc12`, the Activity in test [1] is 79.3%.

For the molecule `NC(Cc1c[nH]c2ccc(F)cc12)C(=O)O` (configuration not stated), in [9], the Activity worked out at 92.5%.

As for `O=C(O)c1cc(-c2ccccc2Cl)nc2ccccc12`, the Activity in [1] was determined as 58.8%.

Source of the values: ChEMBL document CHEMBL5104152, “DNA-encoded library screening on two validated enzymes of the peptidoglycan biosynthetic pathway” (Bioorg Med Chem Lett, 2022).
